Experimental data: patent US20240092761A1, “QUINAZOLINE COMPOUNDS AND METHODS OF USE” (IAMBIC THERAPEUTICS, INC., priority 2022, published 2024)

What was measured:
[1] = target: CDK4/Cyclin D1 (Homo sapiens (Human), UniProt P11802); test: CDK4/Cyclin D1 CHEF Assay (AQT0258 peptide); assay type: biochemical; conditions: 200 uM ATP, read-out: CDK4/ CyclinD1 AQT IC50
From the text: CDK4/Cyclin D1 CHEF Assay
The purpose of CDK4/Cyclin Dl assay is to evaluate the inhibition (% inhibition and IC50 values) of small molecule inhibitors by using a Chelation-Enhance Fluorescence (CHEF) assay. In a CHEF assay, phosphorylation of a peptide substrate results in proportional increase in fluorescence. CHEF kinase assay use peptide substrates containing a synthetic alpha-amino acid with a side chain bearing an 8-hydroxyquinoline derivative (sulfonamido-oxide, Sox). Upon phosphorylation of a nearby serine, threonine or tyrosine and in the presence of Mg(II), the spectral properties of the Sox residue are altered, emitting 485 nm wavelength light when excited with a 360 nm wavelength light source. CDK4/Cyclin D1 catalyzes the phosphoryl transfer to the SOX-labeled substrate peptide AQT0258 from Assayquant Technologies. Typical reaction solutions contained 2% DMSO (+/−inhibitor), 10 mM MgCl2, 1 mM DTT, 200 uM ATP (ATP Km=195.2 uM), 0.012% Brig-35, 10 uM AQT0258 peptide, 0.02% BSA, 1% Glycerol, 0.55 mM EGTA, 2.5 nM CDK4/Cyclin D1 in 54 mM HEPES buffer at pH 7.5. The reaction was initiated with the addition of substrate solution, following a 30-minute pre-incubation of enzyme and inhibitor at 22° C. in the reaction mix. Reactions were allowed to proceed for 3 hrs at 22° C., followed by fluorescence read of the reaction. The IC50 determinations were made from a plot of the fractional velocity as a function of inhibitor concentration fit to the 4 parameters IC50 equation.

[2] = test system: MCF-7 cells; test: Cell Growth Inhibition, MCF-7 (CellTiterGlo, 6 days); assay type: cell-based; conditions: MCF-7, 6-day treatment, CellTiterGlo 2.0
From the text: (§1) MCF-7 and OVCAR-3 cells were used to evaluate the anti-proliferation activity of the CDK inhibitors. MCF-7 (ATCC, HTB-22) cells are epithelial cells from a patient with ER+ metastatic adenocarcinoma. OVCAR-3 (ATCC, HTB-161) cells were derived from malignant ascites of a patient with ovarian cancer and are known to have CCNE1 amplification. Both cell lines were maintained in RPMI media supplemented with 10% fetal bovine serum. For cell growth inhibition assay, CDK inhibitors in DMSO solution were dispensed with either Echo 655 (Beckman Coulter) or Tecan D300e (HP) into 384-well plates (Corning #3765) and the 384-well plates were UV-sterilized prior to the assay. The inhibitors were typically tested in the 10-10,000 nM concentration range with half-log serial dilutions. MCF-7 or OVCAR-3 (500 cells/30 μL/well) were added to each well using Multidrop Combi (ThermoFisher) using standard cassettes. The assay plates with cells were cultured at 37° C., 5% CO2 for 6 days. At the end of the 6-day treatment, 30 μL of CellTiterGlo 2.0 (Promega) was added to each well and the luminescent signal was read using CLARIOstar plus (BMG). The percentage of cell growth inhibition (% CGI) was calculated using the following formula % CGI=100−100×luminescencesample/luminescencecontrol. The half maximal inhibitory concentration (IC50) was determined by nonlinear curve fitting (four parameters, variable slope).

[3] = target: CDK6/Cyclin D3 (Homo sapiens (Human), UniProt Q00534); test: CDK6/Cyclin D3 ADP-Glo Kinase Assay; assay type: biochemical; conditions: 100 uM ATP, read-out: CDK6/ CyclinD3 IC50
Chain of CDK6/Cyclin D3 (Q00534 whole entry): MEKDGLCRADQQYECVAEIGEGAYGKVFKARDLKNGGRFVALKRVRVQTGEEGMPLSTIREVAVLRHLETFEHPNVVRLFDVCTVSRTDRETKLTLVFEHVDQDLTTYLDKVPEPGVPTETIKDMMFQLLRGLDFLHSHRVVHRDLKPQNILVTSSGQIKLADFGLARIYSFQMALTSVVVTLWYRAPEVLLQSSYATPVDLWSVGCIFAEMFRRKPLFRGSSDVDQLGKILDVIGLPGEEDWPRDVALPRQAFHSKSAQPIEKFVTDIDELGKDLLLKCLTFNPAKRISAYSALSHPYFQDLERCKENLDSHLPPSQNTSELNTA
Chain of CDK6/Cyclin D3 (P30281 whole entry partner): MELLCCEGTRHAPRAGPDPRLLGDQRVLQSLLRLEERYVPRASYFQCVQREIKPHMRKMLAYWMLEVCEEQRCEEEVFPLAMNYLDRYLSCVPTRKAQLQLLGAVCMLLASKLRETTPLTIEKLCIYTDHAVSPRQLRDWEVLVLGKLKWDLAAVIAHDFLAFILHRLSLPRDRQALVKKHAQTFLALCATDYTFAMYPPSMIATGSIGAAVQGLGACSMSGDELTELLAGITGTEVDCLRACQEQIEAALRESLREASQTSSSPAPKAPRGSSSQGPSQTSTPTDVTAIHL
Description: CDK6/Cyclin D3 ADP-Glo Kinase Assay
The purpose of the CDK6/Cyclin D3 assay is to evaluate the inhibition (% inhibition and IC50 values) in the presence of small molecule inhibitors by using a Luminescent based ADP-Glo assay. CDK6/Cyclin D3 catalyzes the production of ADP from ATP. ADP-Glo assay monitors ADP producing biochemical reactions. ADP-Glo is performed in 2 steps upon completion of kinase reaction: a combined termination of kinase reaction and depletion of remaining ATP in the first step, and conversion of generated ADP to ATP and the newly produced ATP to light output using luciferase/luciferin reaction in the second step. The luminescent signal generated is proportional to the ADP concentration produced and is correlated with the kinase activity. CDK6/Cyclin D3 was purchased from Carna. […] The assay was initiated with the addition of ATP-containing substrate solution, following a 30-minute pre-incubation of enzyme and inhibitor at room temperature in the reaction mixture. The reaction was stopped after 90 minutes at room temperature by the addition of 10 uL of ADP-GLO Reagent. After a 90-minute incubation, 20 uL of Kinase Detection Reagent was added. Samples were incubated for 40 minutes, after which plate well luminescence was measured on a Envision microplate reader. The IC50 determinations were made from a plot of the fractional velocity as a function of inhibitor concentration fit to the 4 parameters IC50 equation.

[4] = target: CDK2/Cyclin E1 full length (Homo sapiens (Human), UniProt P24941); test: CDK2/Cyclin E1 Full Length ADP-Glo Kinase Assay; assay type: biochemical; conditions: 20 uM ATP, read-out: CDK2/ CyclinE1 IC50
Description: CDK2/Cyclin E1 Full Length ADP-Glo Kinase Assay
The purpose of CDK2/Cyclin E1 assay is to evaluate the inhibition (% inhibition and IC50 values) of small molecule inhibitors by using a Luminescent based ADP-Glo assay. CDK2/Cyclin E1 full length catalyzes the production of ADP from ATP. ADP-Glo assay monitors ADP producing biochemical reactions. ADP-Glo is performed in 2 steps upon completion of kinase reaction: a combined termination of kinase reaction and depletion of remaining ATP in the first step, and conversion of generated ADP to ATP and the newly produced ATP to light output using luciferase/luciferin reaction in the second step. The luminescent signal generated is proportional to the ADP concentration produced and is correlated with the kinase activity. CDK2/Cyclin E1 was purchased from Eurofins (Cat 14-475M). Typical reaction solutions (10 uL final reaction volume) contained 2% DMSO (f inhibitor), 10 mM MgCI2, 1 mM EGTA, 0.05% BSA, 2 mM DTT, 20 uM ATP (ATP Km=64.78 uM), 0.01% Brig-35, 0.75 uM substrate, and 0.328 nM wild-type full length CDK2/Cyclin E1 enzyme complex in 50 mM HEPES buffer at pH 7.5. The assay was initiated with the addition of ATP-containing substrate solution, following a 30-minute pre-incubation of enzyme and inhibitor at room temperature in the reaction mixture. The reaction was stopped after 90 minutes at room temperature by the addition of 10 uL of ADP-GLO Reagent. After a 90 minute incubation, 20 uL of Kinase Detection Reagent was added. Samples were incubated for 40 minutes, after which plate well luminescence was measured on a Envision microplate reader. The IC50 determinations were made from a plot of the fractional velocity as a function of inhibitor concentration fit to the 4 parameters IC50 equation.

[5] = target: CDK1/Cyclin B1 (Homo sapiens (Human), UniProt P06493); test: CDK1/Cyclin B1 ADP-Glo Kinase Assay; assay type: biochemical; conditions: 80 uM ATP
Chain of CDK1/Cyclin B1 (P06493 whole entry): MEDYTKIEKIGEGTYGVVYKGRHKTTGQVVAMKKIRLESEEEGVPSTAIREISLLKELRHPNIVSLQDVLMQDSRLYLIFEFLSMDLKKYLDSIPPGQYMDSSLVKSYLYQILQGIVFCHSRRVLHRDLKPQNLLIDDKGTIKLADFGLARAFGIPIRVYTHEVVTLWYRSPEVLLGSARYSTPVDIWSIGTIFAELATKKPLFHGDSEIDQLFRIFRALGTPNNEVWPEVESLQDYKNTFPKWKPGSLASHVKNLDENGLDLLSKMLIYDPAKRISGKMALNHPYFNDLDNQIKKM
Chain of CDK1/Cyclin B1 (P14635 whole entry partner): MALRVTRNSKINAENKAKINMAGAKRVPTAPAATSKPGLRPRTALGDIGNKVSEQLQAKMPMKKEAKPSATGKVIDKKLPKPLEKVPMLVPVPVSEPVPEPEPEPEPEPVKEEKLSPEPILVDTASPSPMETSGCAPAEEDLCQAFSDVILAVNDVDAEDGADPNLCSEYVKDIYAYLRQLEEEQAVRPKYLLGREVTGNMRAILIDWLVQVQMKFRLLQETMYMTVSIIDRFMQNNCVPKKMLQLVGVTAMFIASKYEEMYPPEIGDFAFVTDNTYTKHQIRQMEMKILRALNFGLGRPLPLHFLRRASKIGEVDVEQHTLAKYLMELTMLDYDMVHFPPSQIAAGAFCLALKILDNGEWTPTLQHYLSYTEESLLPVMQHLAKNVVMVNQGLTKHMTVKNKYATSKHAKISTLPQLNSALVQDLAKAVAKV
Description: CDK1/Cyclin B1 ADP-Glo Kinase Assay
The purpose of CDK1/Cyclin B1 assay is to evaluate the inhibition (% inhibition and IC50 values) of small molecule inhibitors by using a Luminescent based ADP-Glo assay. CDK1/Cyclin B1 catalyzes the production of ADP from ATP. ADP-Glo assay monitors ADP producing biochemical reactions. ADP-Glo is performed in 2 steps upon completion of kinase reaction: a combined termination of kinase reaction and depletion of remaining ATP in the first step, and conversion of generated ADP to ATP and the newly produced ATP to light output using luciferase/luciferin reaction in the second step. The luminescent signal generated is proportional to the ADP concentration produced and is correlated with the kinase activity. CDK1/Cyclin B1 was purchased from Carna (Cat 04-102). Typical reaction solutions (10 uL final reaction volume) contained 2% DMSO (f inhibitor), 10 mM MgCl2, 1 mM EGTA, 0.05% BSA, 2 mM DTT, 80 uM ATP (ATP Km=78.6 uM), 0.01% Brig-35, 0.75 uM substrate, and 4.917 nM CDK1/Cyclin Bl enzyme complex in 50 mM HEPES buffer at pH 7.5. The assay was initiated with the addition of ATP-containing substrate solution, following a 30-minute pre-incubation of enzyme and inhibitor at room temperature in the reaction mixture. The reaction was stopped after 90 minutes at room temperature by the addition of 10 uL of ADP-GLO Reagent. After a 90 minute incubation, 20 uL of Kinase Detection Reagent was added. Samples were incubated for 40 minutes, after which plate well luminescence was measured on a Envision microplate reader. The IC50 determinations were made from a plot of the fractional velocity as a function of inhibitor concentration fit to the 4 parameters IC50 equation.

[6] = test system: OVCAR-3 cells; test: Cell Growth Inhibition, OVCAR-3 (CellTiterGlo, 6 days); assay type: cell-based; conditions: OVCAR-3, 6-day treatment, CellTiterGlo 2.0
From the text: as §1

Chain of CDK4/Cyclin D1 (P11802 whole entry): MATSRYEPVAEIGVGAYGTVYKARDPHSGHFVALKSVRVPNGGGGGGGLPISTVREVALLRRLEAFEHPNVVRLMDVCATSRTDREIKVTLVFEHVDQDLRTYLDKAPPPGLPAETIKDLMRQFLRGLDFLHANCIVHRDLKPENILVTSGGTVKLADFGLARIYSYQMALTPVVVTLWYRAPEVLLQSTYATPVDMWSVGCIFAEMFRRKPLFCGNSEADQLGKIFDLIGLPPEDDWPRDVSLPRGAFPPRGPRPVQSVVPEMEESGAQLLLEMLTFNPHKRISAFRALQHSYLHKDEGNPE
Chain of CDK4/Cyclin D1 (P24385 whole entry partner): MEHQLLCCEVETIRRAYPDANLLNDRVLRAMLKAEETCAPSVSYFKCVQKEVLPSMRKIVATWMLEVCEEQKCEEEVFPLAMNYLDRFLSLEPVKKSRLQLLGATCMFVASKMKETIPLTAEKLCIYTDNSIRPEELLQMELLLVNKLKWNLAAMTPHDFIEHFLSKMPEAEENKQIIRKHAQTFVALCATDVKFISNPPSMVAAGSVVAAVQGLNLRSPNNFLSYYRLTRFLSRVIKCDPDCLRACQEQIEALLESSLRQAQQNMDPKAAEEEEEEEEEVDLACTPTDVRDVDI

Structure (SMILES)	IC50 [1] [nM]	IC50 ([2]; Homo sapiens, MCF7, 144 h) [nM]	IC50 [3] [nM]	IC50 [4] [nM]	IC50 [5] [nM]	IC50 ([6]; Homo sapiens, 144 h) [nM]	IC50 [2] [nM]	IC50 [6] [nM]
FC(F)c1cc(N2CC3(CCNC3)C2)c2nc(NC3CCN(c4ncc(C5CC5)cn4)CC3)ncc2c1 [Example 68, N-(1-(5-cyclopropylpyrimidin-2-yl)piperidin-4-yl)-6-(difluoromethyl)-8-(2,6-diazaspiro[3.4]octan-2-yl)quinazolin-2-amine]	< 200	500 to 2000	200 to 500	< 200	< 200	500 to 2000		
CS(=O)(=O)N1CCC(Nc2ncc3cc(C(F)F)cc(N4CC5(C4)CN(C4CC4)C5)c3n2)CC1 [Example 69, 8-(6-cyclopropyl-2,6-diazaspiro[3.3]heptan-2-yl)-6-(difluoromethyl)-N-(1-(methylsulfonyl)piperidin-4-yl)quinazolin-2-amine]	< 200	200 to 500	< 200	< 200	200 to 500	500 to 2000		
CS(=O)(=O)N1CCC(Nc2ncc3cc(C(F)F)cc(C4CC5(CCNC5)C4)c3n2)CC1 (stereo not drawn) [Example 70, 6-(difluoromethyl)-N-(1-(methylsulfonyl)piperidin-4-yl)-8-(6-azaspiro[3.4]octan-2-yl)quinazolin-2-amine]	< 200	200 to 500	< 200	< 200	< 200	200 to 500		
CN1CC2(CCN(c3cc(C(F)F)cc4cnc(NC5CCN(c6ncc7ccn(C8CC8)c7n6)CC5)nc34)C2)C1 [Example 71, N-(1-(7-cyclopropyl-7H-pyrrolo[2,3-d]pyrimidin-2-yl)piperidin-4-yl)-6-(difluoromethyl)-8-(2-methyl-2,6-diazaspiro[3.4]octan-6-yl)quinazolin-2-amine]	< 200	500 to 2000	500 to 2000	200 to 500	> 2000	500 to 2000		
CS(=O)(=O)N1Cc2ccc(Nc3ncc4cc(C(F)F)cc(N5CC6(C5)CN(C5CC5)C6)c4n3)cc2C1 [Example 72, 8-(6-cyclopropyl-2,6-diazaspiro[3.3]heptan-2-yl)-6-(difluoromethyl)-N-(2-(methylsulfonyl)isoindolin-5-yl)quinazolin-2-amine]	< 200	500 to 2000	< 200	< 200	< 200	> 2000		
CN1CC2(CCN(c3cc(C(F)F)cc4cnc(Nc5ccc6c(c5)CN(S(C)(=O)=O)C6)nc34)C2)C1 [Example 73, 6-(difluoromethyl)-8-(2-methyl-2,6-diazaspiro[3.4]octan-6-yl)-(methylsulfonyl)N-(2-isoindolin-5-yl)quinazolin-2amine]	< 200		< 200	< 200	< 200		200 to 500	500 to 2000
O=S(=O)(C1CC1)N1CCC(Nc2ncc3cc(C(F)F)cc(N4CC5(CCNC5)C4)c3n2)CC1 [Example 74, N-(1-(cyclopropylsulfonyl)piperidin-4-yl)-6-(difluoromethyl)-8-(2,6-diazaspiro[3.4]octan-2-yl)quinazolin-2-amine]	< 200	200 to 500	< 200	< 200	< 200	200 to 500		
Cn1ncc2cc(Nc3ncc4cc(C(F)F)cc(N5CC6(CCNC6)C5)c4n3)ccc21 [Example 75, 6-(difluoromethyl)-N-(1-methyl-1H-indazol-5-yl)-8-(2,6-diazaspiro[3.4]octan-2-yl)quinazolin-2-amine]	< 200	500 to 2000	< 200	< 200	< 200	500 to 2000		
COCCN1CC2(C1)CN(c1cc(C(F)F)cc3cnc(NC4CCN(S(=O)(=O)C5CC5)CC4)nc13)C2 [Example 76, N-(1-(cyclopropylsulfonyl)piperidin-4-yl)-6-(difluoromethyl)-8-(6-(2-methoxyethyl)-2,6-diazaspiro[3.3]heptan-2-yl)quinazolin-2-amine]	< 200	500 to 2000	< 200	< 200	500 to 2000	500 to 2000		
